According to US7851474B2, “Dipiperazinyl ketones and related analogues” (Neurogen Corporation, priority 2005, dated 2010):

target: T1, chimeric human H3 receptor (Homo sapiens, UniProt Q9Y5N1, E19D); experiment: Chimeric human H3 receptor GTP binding assay (agonist-stimulated GTP-gamma35S binding, Example 7); format: biochemical; settings: Table II; assay of Example 7; "*" in Ki; read-out: Ki
T1 construct: made in house; host or cells: Sf9 insect cells (baculovirus infection); P2 membrane preparation
T1 sequence (Q9Y5N1 with tags, fused parts or gaps E19D): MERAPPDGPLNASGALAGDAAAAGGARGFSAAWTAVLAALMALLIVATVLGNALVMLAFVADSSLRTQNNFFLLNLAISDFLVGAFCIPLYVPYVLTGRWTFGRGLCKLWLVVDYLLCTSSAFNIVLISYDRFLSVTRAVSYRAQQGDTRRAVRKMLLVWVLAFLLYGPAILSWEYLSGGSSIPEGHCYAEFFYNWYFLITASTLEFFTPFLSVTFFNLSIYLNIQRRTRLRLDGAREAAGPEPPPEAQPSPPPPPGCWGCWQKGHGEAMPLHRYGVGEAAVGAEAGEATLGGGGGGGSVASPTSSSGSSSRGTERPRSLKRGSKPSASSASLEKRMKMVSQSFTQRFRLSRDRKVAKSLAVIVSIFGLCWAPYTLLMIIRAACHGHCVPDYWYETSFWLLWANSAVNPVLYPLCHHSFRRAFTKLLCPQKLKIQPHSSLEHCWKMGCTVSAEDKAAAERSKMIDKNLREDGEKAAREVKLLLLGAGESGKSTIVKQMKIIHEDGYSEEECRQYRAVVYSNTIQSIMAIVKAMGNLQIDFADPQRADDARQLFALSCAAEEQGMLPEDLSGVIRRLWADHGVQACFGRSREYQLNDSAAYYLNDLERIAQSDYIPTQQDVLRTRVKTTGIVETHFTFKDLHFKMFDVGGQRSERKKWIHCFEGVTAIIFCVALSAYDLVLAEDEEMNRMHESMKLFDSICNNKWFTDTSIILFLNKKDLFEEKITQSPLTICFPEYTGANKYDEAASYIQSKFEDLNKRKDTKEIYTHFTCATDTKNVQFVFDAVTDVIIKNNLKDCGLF
Procedure, shortened: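 Sf9 membranes co-expressing the chimeric receptor and heterotrimeric G-protein subunits, 35 μg protein per tube, in pH 7.4 Tris buffer with 10 μM GDP. Test compounds at 10^−10 to 10^−6 M with 1 μM histamine, 60 min at room temperature. Filter-bound GTP-gamma^35S read by scintillation; IC50 from non-linear regression of dose-response curves.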

Ki, < 1 µM:
O=C(CN1CCN(c2ccc(C(=O)N3CCSCC3)cc2)CC1)N1CCN(C2CCC2)CC1 [Compound 1094, 4-(4-{4-[2-(4-cyclobutylpiperazin-1-yl)-2-oxoethyl]piperazin-1-yl}benzoyl) thiomorpholine]
CC1CN(C(=O)c2ccc(N3CCN(CC(=O)N4CCN(C5CCC5)CC4)CC3)cc2)CC(C)O1 (stereo not shown) [Compound 1095, 4-(4-{4-[2-(4-cyclobutylpiperazin-1-yl)-2-oxoethyl]piperazin-1-yl}benzoyl)-2,6-dimethylmorpholine]
CC(=O)c1ccc(N2CCN(CC(=O)N3CCN(C4CCC4)CC3)C(=O)C2)cc1 [Compound 1096, 4-(4-acetylphenyl)-1-[2-(4-cyclobutylpiperazin-1-yl)-2-oxoethyl]piperazin-2-one]
CN(C)c1ccc(-c2cnc(N3CCN(CC(=O)N4CCN(C5CCC5)CC4)CC3)cn2)cc1 [Compound 1097, 4-(5-{4-[2-(4-cyclobutylpiperazin-1-yl)-2-oxoethyl]piperazin-1-yl}pyrazin-2-yl)-N,N-dimethylaniline]
N#Cc1ccc(-c2cnc(N3CCN(CC(=O)N4CCN(C5CCC5)CC4)CC3)cn2)cc1 [Compound 1098, 4-(5-{4-[2-(4-cyclobutylpiperazin-1-yl)-2-oxoethyl]piperazin-1-yl}pyrazin-2-yl)benzonitrile]
CN(C)c1ccc(-c2ccc(N3CCN(CC(=O)N4CCN(C5CCC5)CC4)CC3)nn2)cc1 [Compound 1099, 4-(6-{4-[2-(4-cyclobutylpiperazin-1-yl)-2-oxoethyl]piperazin-1-yl}pyndazin-3-yl)-N,N-dimethylaniline]
N#Cc1ccc(-c2ccc(N3CCN(CC(=O)N4CCN(C5CCC5)CC4)CC3)nn2)cc1 [Compound 1100, 4-(6-{4-[2-(4-cyclobutylpiperazin-1-yl)-2-oxoethyl]piperazin-1-yl}pyridazin-3-yl)benzonitrile]
O=C(CN1CCN(c2ccc(C(=O)N3CCSCC3)cn2)CC1)N1CCN(C2CCC2)CC1 [Compound 1101]
C=CCN1CCN(C(=O)CN2CCN(c3ccc(OC)cc3)C(C)C2)CC1 (stereo not shown) [Compound 1102, 4-[2-(4-allylpiperazin-1-yl)-2-oxoethyl]-1-(4-methoxyphenyl)-2-methylpiperazine]
COc1ccc(N2CCN(CC(=O)N3CCN(C4CCC4)CC3)CC2C)cc1 (stereo not shown) [Compound 1103, 4-[2-(4-cyclobutylpiperazin-1-yl)-2-oxoethyl]-1-(4-methoxyphenyl)-2-methylpiperazine]
Cc1cccc(N2CCN(CC(=O)N3CCN(C4CCC4)CC3)CC2C)c1 (stereo not shown) [Compound 1104, 4-[2-(4-cyclobutylpiperazin-1-yl)-2-oxoethyl]-2-methyl-1-(3-methylphenyl)piperazine]
Cc1ccc(N2CCN(CC(=O)N3CCN(C4CCC4)CC3)CC2C)cc1 (stereo not shown) [Compound 1105, 4-[2-(4-cyclobutylpiperazin-1-yl)-2-oxoethyl]-2-methyl-1-(4-methylphenyl)piperazine]
COc1ccc(N2CCN(CC(=O)N3CCN(C4CCCCC4)CC3)CC2C)cc1 (stereo not shown) [Compound 1106, 4-[2-(4-cyclohexylpiperazin-1-yl)-2-oxoethyl]-1-(4-methoxyphenyl)-2-methylpiperazine]
Cc1ccc(N2CCN(CC(=O)N3CCN(C4CCCC4)CC3)CC2C)cc1 (stereo not shown) [Compound 1109, 4-[2-(4-cyclopentylpiperazin-1-yl)-2-oxoethyl]-2-methyl-1-(4-methylphenyl)piperazine]
CCN1CCN(C(=O)CN2CCN(c3ccc(OC)cc3)C(C)C2)CC1 (stereo not shown) [Compound 1110, 4-[2-(4-ethylpiperazin-1-yl)-2-oxoethyl]-1-(4-methoxyphenyl)-2-methylpiperazine]
COc1ccc(N2CCN(CC(=O)N3CCN(C(C)C)CC3)CC2C)cc1 (stereo not shown) [Compound 1111, 4-[2-(4-isopropylpiperazin-1-yl)-2-oxoethyl]-1-(4-methoxyphenyl)-2-methylpiperazine]
CCC(C)N1CCN(C(=O)CN2CCN(c3ccc(OC)cc3)C(C)C2)CC1 (stereo not shown) [Compound 1113, 4-[2-(4-sec-butylpiperazin-1-yl)-2-oxoethyl]-1-(4-methoxyphenyl)-2-methylpiperazine]
CCC(C)N1CCN(C(=O)CN2CCN(c3cccc(C)c3)C(C)C2)CC1 (stereo not shown) [Compound 1114, 4-[2-(4-sec-butylpiperazin-1-yl)-2-oxoethyl]-2-methyl-1-(3-methylphenyl)piperazine]
O=C(CN1CCC(N2CCOCC2)CC1)N1CCN(C2CCC2)CC1 [Compound 1115, 4-{1-[2-(4-cyclobutylpiperazin-1-yl)-2-oxoethyl]piperidin-4-yl}morpholine]
CCC(C)N1CCN(C(=O)CN2CCC(N3CCOCC3)CC2)CC1 (stereo not shown) [Compound 1116, 4-{1-[2-(4-sec-butylpiperazin-1-yl)-2-oxoethyl]piperidin-4-yl}morpholine]
CN(C)c1cccc(-c2ccc(N3CCN(CC(=O)N4CCN(C5CCC5)CC4)CC3)cc2)c1 [Compound 1117, 4′-{1-[2-(4-cyclobutylpiperazin-1-yl)-2-oxoethyl]piperazin-1-yl}-N,N-dimethylbiphenyl-3-amine]
N#Cc1cccc(-c2ccc(N3CCN(CC(=O)N4CCN(C5CCC5)CC4)CC3)cc2)c1 [Compound 1118, 4′-{1-[2-(4-cyclobutylpiperazin-1-yl)-2-oxoethyl]piperazin-1-yl}biphenyl-3-carbonitrile]
N#Cc1ccc(-c2ccc(N3CCN(CC(=O)N4CCN(C5CCC5)CC4)CC3)cc2)cc1 [Compound 1119, 4′-{1-[2-(4-cyclobutylpiperazin-1-yl)-2-oxoethyl]piperazin-1-yl}biphenyl-4-carbonitrile]
O=C(O)c1ccc(N2CCN(CC(=O)N3CCN(C4CCC4)CC3)CC2)cc1 [Compound 1120, 4-{1-[2-(4-cyclobutylpiperazin-1-yl)-2-oxoethyl]piperazin-1-yl}benzoic acid]
N#Cc1ccc(N2CCN(CC(=O)N3CCN(C4CCC4)CC3)CC2)cc1 [Compound 1121, 4-{1-[2-(4-cyclobutylpiperazin-1-yl)-2-oxoethyl]piperazin-1-yl}benzonitrile]
CNC(=O)c1ccc(N2CCN(CC(=O)N3CCN(C4CCC4)CC3)CC2)cc1 [Compound 1122, 4-{1-[2-(4-cyclobutylpiperazin-1-yl)-2-oxoethyl]piperazin-1-yl}-N-methylbenzamide]
CN(C)C(=O)c1ccc(N2CCN(CC(=O)N3CCN(C4CCC4)CC3)CC2)cc1 [Compound 1123, 4-{1-[2-(4-cyclobutylpiperazin-1-yl)-2-oxoethyl]piperazin-1-yl}-N,N-dimethylbenzamide]
CCNC(=O)c1ccc(N2CCN(CC(=O)N3CCN(C4CCC4)CC3)CC2)cc1 [Compound 1124, 4-{1-[2-(4-cyclobutylpiperazin-1-yl)-2-oxoethyl]piperazin-1-yl}-N-ethylbenzamide]
